From patent US4329353A (priority 1981, dated 1982) come the findings set out here.

Each structure is given as a SMILES string. Structures can show the parent of a compound that is named as a salt. Where two headings read alike, the source gives them in different places.

This test deals with apomorphine-induced emesis. Nature of the test: animal or person. The class given is in vivo, beagle dogs. The conditions noted are these: Canis lupus familiaris, sc, 1 h.

For `CC(=O)CCN1CN(c2ccc(F)cc2)C2(CCN(C3CCC(C#N)(c4ccc(F)cc4)CC3)CC2)C1=O` (single isomer, unassigned) [CH2 CH2 COCH3, B, HCl . H2 O], the ED50 (usually the midpoint of the dose-response relation) (read-out: ED50 (APO)-dog) turned out to be 2 µg/kg.

With `NC(=O)C1(c2ccc(F)cc2)CCC(N2CCC3(CC2)C(=O)NCN3c2ccc(F)cc2)CC1` (centres unmarked) [CONH2,4-FC6 H4,4-FC6 H4, B, base, (B)-1-(4-fluorophenyl)-4-[1-(4-fluorophenyl)-4-oxo-1,3,8-triazaspiro[4,5]dec-8-yl]cyclohexanecarboxamide], the median effective dose (ED50) (read-out: ED50 (APO)dog) was determined as 8 µg/kg.

`N#CC1(c2ccc(F)cc2)CCC(N2CCC3(CC2)C(=O)N(C(=O)Nc2ccccc2)CN3c2ccc(F)cc2)CC1` (centres unmarked) [CONHC6 H5, B, base, (B)-8-[4-cyano-4-(4-fluorophenyl)cyclohexyl]-1-(4-fluorophenyl)-4-oxo-N-phenyl-1,3,8-triazaspiro[4,5]decane-3-carboxamide]: the ED50 (read-out: ED50 (APO)-dog) is below 160 µg/kg.

Regarding `COC(=O)C1(c2ccc(F)cc2)CCC(N2CCC3(CC2)C(=O)NCN3c2ccc(F)cc2)CC1` (centres unmarked) [COOCH3,4-FC6 H4,4-FC6 H4, base], the ED50 (read-out: ED50 (APO)dog) is 1.8 µg/kg.

For the compound `CNC(=S)N1CN(c2ccc(F)cc2)C2(CCN(C3CCC(C#N)(c4ccc(F)cc4)CC3)CC2)C1=O` (centres unmarked) [CSNHCH3, base, (B)-8-[4-cyano-4-(4-fluorophenyl)cyclohexyl]-1-(4-fluorophenyl)-N-methyl-4-oxo-1,3,8-triazaspiro[4,5]decane-3-carbothioamide], for the setting “read-out: ED50 (APO)-dog”, the ED50 is below 4 µg/kg.
